According to patent US20230140276A1, “TRICYCLIC COMPOUNDS, PREPARATION METHOD AND MEDICAL USE THEREOF” (HEFEI INSTITUTE OF PHARMACEUTICAL INDUSTRY CO., LTD., priority 2020, published 2023):

Legend:
[1] = test system: histamine-induced skin vascular permeability; assay: Inhibitory effect on histamine-induced vascular permeability in mice; format: in vivo, ICR mice; conditions: Mus musculus, po; 5 mg/kg intragastric 1 hour before modeling; histamine phosphate 1 ug/0.1 mL; Evans Blue absorbance at 610 nm; read-out: Inhibition rate (%)
Description: Intragastric administration was performed 1 hour before modeling. The model group was given the corresponding solvent. […] 10% sodium sulfide was used to depilate the back of mice (3 cm×3 cm). The mice were injected 1 ug/0.1 mL of histamine phosphate physiological saline solution into the depilation site one hour after the administration, and injected 0.25% Evans Blue solution 4 ml/kg from the tail vein immediately after the injection. After 30 minutes, the mice were dislocated and sacrificed. The blue-stained part of the skin was removed and perforated (diameter 15 mm), cut into pieces and soaked in 1 ml of acetone-saline (7:3) solution. After 24 h, it was centrifuged (3000 r/min, 10 min) to take the supernatant. The absorbance of the sample was measured with an ultraviolet spectrophotometer at a wavelength of 610 nm and a blank zero calibration with acetone-physiological saline solution.

[2] = target: hERG potassium channel (Homo sapiens, UniProt Q12809); assay: hERG potassium channel activity test; format: biochemical
Sequence of hERG potassium channel (Q12809 whole entry): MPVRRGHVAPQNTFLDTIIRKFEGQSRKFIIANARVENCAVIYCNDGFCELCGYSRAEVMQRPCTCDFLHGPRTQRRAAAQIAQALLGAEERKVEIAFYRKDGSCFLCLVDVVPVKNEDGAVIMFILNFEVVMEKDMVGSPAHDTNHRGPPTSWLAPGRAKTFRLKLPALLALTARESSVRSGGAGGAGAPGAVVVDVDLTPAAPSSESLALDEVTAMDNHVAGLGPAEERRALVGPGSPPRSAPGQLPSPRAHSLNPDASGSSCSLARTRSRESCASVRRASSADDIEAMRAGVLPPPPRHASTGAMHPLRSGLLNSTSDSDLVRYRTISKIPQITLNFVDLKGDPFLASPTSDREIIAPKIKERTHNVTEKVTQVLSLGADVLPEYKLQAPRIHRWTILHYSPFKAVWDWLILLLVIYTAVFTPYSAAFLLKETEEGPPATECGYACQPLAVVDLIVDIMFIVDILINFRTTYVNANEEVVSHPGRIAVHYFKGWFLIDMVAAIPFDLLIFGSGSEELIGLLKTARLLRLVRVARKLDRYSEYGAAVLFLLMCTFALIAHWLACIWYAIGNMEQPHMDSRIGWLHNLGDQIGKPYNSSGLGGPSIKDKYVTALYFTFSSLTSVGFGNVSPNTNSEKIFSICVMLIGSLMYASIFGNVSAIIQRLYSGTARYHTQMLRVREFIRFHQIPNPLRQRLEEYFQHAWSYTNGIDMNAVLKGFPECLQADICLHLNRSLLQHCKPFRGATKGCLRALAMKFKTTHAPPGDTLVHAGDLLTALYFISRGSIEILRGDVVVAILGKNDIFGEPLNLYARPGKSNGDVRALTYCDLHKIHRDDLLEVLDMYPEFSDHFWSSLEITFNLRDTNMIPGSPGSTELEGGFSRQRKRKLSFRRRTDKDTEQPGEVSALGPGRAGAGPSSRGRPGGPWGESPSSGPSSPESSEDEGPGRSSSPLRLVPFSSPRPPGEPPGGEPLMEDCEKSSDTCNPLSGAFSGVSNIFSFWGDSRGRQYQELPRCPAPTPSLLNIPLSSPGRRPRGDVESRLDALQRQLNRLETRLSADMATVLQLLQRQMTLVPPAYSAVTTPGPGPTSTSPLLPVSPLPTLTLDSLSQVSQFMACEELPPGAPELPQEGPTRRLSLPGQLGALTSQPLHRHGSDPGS

[3] = test system: pilocarpine-induced saliva secretion; assay: Pilocarpine-induced salivation in rats; conditions: 10 mg/kg intragastric; pilocarpine 1 mg/kg i.p. 15 minutes later; saliva collected 10 minutes
Description: Rats in each group were given corresponding drugs by intragastric administration. 15 minutes later, pilocarpine (1 mg/kg, dissolved in physiological saline) was injected intraperitoneally to induce saliva secretion. The rat was immediately anesthetized by intraperitoneal injection of 10% chloral hydrate. After the rat was anesthetized, the residual saliva in the oral cavity was taken out with a cotton ball in that the weighed cotton ball (M1) was placed in the oral cavity (two under the tongue and one for each on both sides). The cotton ball was taken out 10 minutes later and the weight of the cotton ball (M2) was immediately measured.
Inhibition rate=Saliva secretion in drug administration group/Saliva secretion in model group×100%

## CC(C)(C(=O)O)c1ccc(CN2CCC(=C3c4ccc(Cl)cc4CCc4cccnc43)CC2)cc1 [Example 1, 2-(4-((4-(8-chloro-5,6-dihydro-11H-benzo[5,6]cyclohept[1,2-b]pyridine-11-enyl)piperidine-1-yl)methyl)phenyl)-2-methylpropionic acid]
[1]
  inhibition in vivo at 5 mg/kg: 52.2%
[2]
  IC50: > 30 µM
[3]
  Inhibition rate (%): 18.53%

## COc1ccccc1OCC(O)CN1CCC(=C2c3ccc(Cl)cc3CCc3cccnc32)CC1 (stereo not drawn) [Compound LHC-7, reference compound]
[1]
  inhibition in vivo at 5 mg/kg: 53.2%
[2]
  IC50: 0.248 µM
[3]
  Inhibition rate (%): 95.60%

## CC(C)(C(=O)O)c1ccc(CCCN2CCC(=C3c4ccc(Cl)cc4CCc4cccnc43)CC2)c(F)c1 [Example 8, 2-(4-(3-(4-(8-chloro-5,6-dihydro-11H-benzo[5,6]cyclohepta[1,2-b]pyridine-11-enyl)piperidine-1-yl)propyl)-3-fluorophenyl)-2-methylpropionic acid]
[1]
  inhibition in vivo at 5 mg/kg: 34.9%
[2]
  IC50: > 30 µM
[3]
  Inhibition rate (%): 8.23%

## Cc1cc(CCCN2CCC(=C3c4ccc(Cl)cc4CCc4cccnc43)CC2)ccc1C(C)(C)C(=O)O [Example 11, 2-(4-(3-(4-(8-chloro-5,6-dihydro-11H-benzo[5,6]cyclohepta[1,2-b]pyridine-11-enyl)piperidine-1-yl)propyl)-2-methylphenyl)-2-methylpropionic acid]
[1]
  inhibition in vivo at 5 mg/kg: 36.9%
[2]
  IC50: > 30 µM
[3]
  Inhibition rate (%): 5.20%

## CC(C)(C(=O)O)c1ccc(C(O)CCCN2CCC(=C3c4ccc(Cl)cc4CCc4cccnc43)CC2)cc1 (stereo not drawn) [Example 29]
[1]
  inhibition in vivo at 5 mg/kg: 64.3%
[2]
  IC50: > 30 µM
[3]
  Inhibition rate (%): 11.28%

## CC(C)(C(=O)O)c1ccc(CCCN2CCC(=C3c4ccc(Cl)cc4CCc4cccnc43)CC2)c(OC(F)(F)F)c1 [Example 7, 2-(4-(3-(4-(8-chloro-5,6-dihydro-11H-benzo[5,6]cyclohepta[1,2-b]pyridine-11-enyl)piperidine-1-yl)propyl)-3-(trifluoromethoxy)phenyl)-2-methylpropionic acid]
[1]
  inhibition in vivo at 5 mg/kg: 42.6%
[2]
  IC50: > 30 µM
[3]
  Inhibition rate (%): 4.65%

## CC(C)(C(=O)O)c1ccc(C#N)c(CCCN2CCC(=C3c4ccc(Cl)cc4CCc4cccnc43)CC2)c1 [Example 26]
[1]
  inhibition in vivo at 5 mg/kg: 68.2%
[2]
  IC50: > 30 µM
[3]
  Inhibition rate (%): 13.28%

## CC(C)(C(=O)O)c1ccc(CCCN2CCC(=C3c4ccc(Cl)cc4CCc4cccnc43)CC2)c(C#N)c1 [Example 4, 2-(4-(3-(4-(8-chloro-5,6-dihydro-11H-benzo[5,6]cyclohepta[1,2-b]pyridine-11-ylidene)piperidine-1-yl)propyl)-3-cyano)-2-methylpropionic acid]
[1]
  inhibition in vivo at 5 mg/kg: 65.4%
[2]
  IC50: > 30 µM
[3]
  Inhibition rate (%): 8.72%
